13 compounds from publication PMC12481029, “Design, synthesis, antiproliferative assessments, and computational studies of new quinolin-2(1H)-ones as dual EGFR/HER-2 inhibitors” (Frontiers in Chemistry, 2025) can be followed below.

Where “and” joins values, the source holds several entries; their conditions need not be identical. Identical values can stand only once. Where only a bound is given, the exact number is not on record here.

For data set [1], the system named is lung (A-549) cancer cell line. The data set can be described thus: Antiproliferative assay, A-549. The following applies: Homo sapiens, A549; read-out: Antiproliferative activity IC50 ± SEM, A-549. The data set is classed as cell-based. The text has this:
(§1) The MTT assay ([Al-Wahaibi et al., 2022]; [Mahmoud et al., 2023]) was employed to assess the antiproliferative effects of compounds 3a-h and 5a-g on four human cancer cell lines: colon (HT-29) cancer, pancreatic (Panc-1) cancer, lung (A-549) cancer, and breast (MCF-7) cancer cell lines. Erlotinib was applied as a reference. Table 1 presents the median inhibitory concentration (IC50) and average IC50 (GI50) values for each compound evaluated on the four cancer cell lines.
(§2) Compounds 3a-h and 5a-g were tested for their antiproliferative activities on four human cancer cell lines: colon (HT-29), pancreatic (Panc-1), lung (A-549), and breast (MCF-7) using the MTT assay ([Al-Wahaibi et al., 2022]; [Mahmoud et al., 2023]). Erlotinib was applied as a reference.
(§3) To explore the antiproliferative potential of compounds propidium iodide fluorescence assay was performed using different cell lines such as Panc-1 (pancreas cancer cell line), MCF-7 (breast cancer cell line), HT-29 (colon cancer cell line) and A-549 (epithelial cancer cell line), respectively. To calculate the total nuclear DNA, a fluorescent dye (propidium iodide, PI) is used which can attach to the DNA, thus offering a quick and precise technique. PI cannot pass through the cell membrane and its signal intensity can be considered as directly proportional to quantity of cellular DNA. Cells whose cell membranes are damaged or have changed permeability are counted as dead ones. The assay was performed by seeding the cells of different cell lines at a density of 3000-7500 cells/well (in 200μl medium) in culture plates followed by incubation for 24h at 37 °C in humidified 5%CO2/95% air atmospheric conditions. The medium was removed; the compounds were added to the plates at 10 μM concentrations (in 0.1% DMSO) in triplicates, followed by incubation for 48h. DMSO (0.1%) was used as control. After incubation, medium was removed followed by the addition of PI (25 μl, 50μg/mL in water/medium) to each well of the plates. At -80 °C, the plates were allowed to freeze for 24 h, followed by thawing at 25 °C. A fluorometer (Polar-Star BMG Tech) was used to record the readings at excitation and emission wavelengths of 530 and 620 nm for each well. The percentage cytotoxicity of compounds was calculated using the following formula: […]

Data set [2] can be described thus: Cell viability assay (MTT), normal mammary cells. The following applies: human, MCF-10A normal mammary epithelial cells.
Method: (§4) MTT assay was performed to investigate the effect of the synthesized compounds on mammary epithelial cells (MCF-10A). The cells were propagated in medium consisting of Ham's F-12 medium/ Dulbecco's modified Eagle's medium (DMEM) (1:1) supplemented with 10% foetal calf serum, 2 mM glutamine, insulin (10 μg/mL), hydrocortisone (500 ng/mL) and epidermal growth factor (20 ng/mL). Trypsin ethylenediamine tetra acetic acid (EDTA) was used to passage the cells after every 2-3 days. 96-well flat-bottomed cell culture plates were used to seed the cells at a density of 10^4 cells mL^-1. The medium was aspirated from all the wells of culture plates after 24 h followed by the addition of synthesized compounds (in 200 μL medium to yield a final concentration of 0.1% (v/v) dimethyl sulfoxide) into individual wells of the plates. Four wells were designated to a single compound. The plates were allowed to incubate at 37°C for 96 h. Afterwards, the medium was aspirated and 3-[4,5-dimethylthiazol-2-yl]-2,5-diphenyltetrazolium bromide (MTT) (0.4 mg/mL) in medium was added to each well and subsequently incubated for 3 h. The medium was aspirated and 150 μL dimethyl sulfoxide (DMSO) was added to each well. The plates were vortexed followed by the measurement of absorbance at 540 nm on a microplate reader.
In data set [3] the test system is four human cancer cell lines (A-549, MCF-7, Panc-1, HT-29). In words: Antiproliferative assay, average over four cancer cell lines. Format: cell-based. As to conditions: for GI50: Homo sapiens, average IC50 over the four cancer cell lines; for Potency reduction (fold) compared to 3d (GI50): ratio to 3d GI50 = 41 nM.
Data set [4] has as its system breast (MCF-7) cancer cell line. The data set can be described thus: Antiproliferative assay, MCF-7. The data set is classed as cell-based. The following applies: Homo sapiens, MCF7; read-out: Antiproliferative activity IC50 ± SEM, MCF-7.
Excerpt: as §1, §2, §3

Data set [5] concerns colon (HT-29) cancer cell line. The data set can be described thus: Antiproliferative assay, HT-29. The data set is classed as cell-based. The following applies: Homo sapiens, read-out: Antiproliferative activity IC50 ± SEM, HT-29.
For data set [6], the system named is pancreatic (Panc-1) cancer cell line. In words: Antiproliferative assay, Panc-1. Format: cell-based. As to conditions: Homo sapiens, read-out: Antiproliferative activity IC50 ± SEM, Panc-1.
Excerpt: as §1, §2, §3

The next data set concerns the target EGFR (Homo sapiens, UniProt P00533). The data set can be described thus: EGFR inhibitory assay (EGFR-TK test). The following applies: for IC50: EGFR inhibition IC50 ± SEM; for Fold less effective than erlotinib, EGFR inhibition: ratio to erlotinib IC50.
In the next data set the target is HER-2 (Homo sapiens, UniProt P04626). The data set can be described thus: HER-2 inhibitory assay (ADP-Glo kinase assay). (In general: In ADP-Glo the light output rises with the ADP produced.)
The next data set is described as follows: in vitro. As to conditions: human.

Sequence of EGFR (P00533 669-1210): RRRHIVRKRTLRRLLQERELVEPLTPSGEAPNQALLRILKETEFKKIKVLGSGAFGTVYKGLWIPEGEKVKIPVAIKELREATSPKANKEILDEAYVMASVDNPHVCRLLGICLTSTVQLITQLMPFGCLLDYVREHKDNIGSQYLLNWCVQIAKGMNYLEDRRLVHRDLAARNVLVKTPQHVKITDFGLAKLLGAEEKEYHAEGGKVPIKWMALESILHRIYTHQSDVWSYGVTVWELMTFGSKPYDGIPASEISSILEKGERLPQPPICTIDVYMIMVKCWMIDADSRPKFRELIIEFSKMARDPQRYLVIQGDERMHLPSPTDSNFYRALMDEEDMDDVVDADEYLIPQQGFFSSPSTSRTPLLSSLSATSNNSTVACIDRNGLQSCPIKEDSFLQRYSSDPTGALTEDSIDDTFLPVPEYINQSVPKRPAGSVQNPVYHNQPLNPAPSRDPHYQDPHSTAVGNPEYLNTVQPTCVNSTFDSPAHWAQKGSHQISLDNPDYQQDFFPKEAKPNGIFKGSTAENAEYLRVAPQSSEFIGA
Sequence of HER-2 (P04626 676-1255 limits assumed): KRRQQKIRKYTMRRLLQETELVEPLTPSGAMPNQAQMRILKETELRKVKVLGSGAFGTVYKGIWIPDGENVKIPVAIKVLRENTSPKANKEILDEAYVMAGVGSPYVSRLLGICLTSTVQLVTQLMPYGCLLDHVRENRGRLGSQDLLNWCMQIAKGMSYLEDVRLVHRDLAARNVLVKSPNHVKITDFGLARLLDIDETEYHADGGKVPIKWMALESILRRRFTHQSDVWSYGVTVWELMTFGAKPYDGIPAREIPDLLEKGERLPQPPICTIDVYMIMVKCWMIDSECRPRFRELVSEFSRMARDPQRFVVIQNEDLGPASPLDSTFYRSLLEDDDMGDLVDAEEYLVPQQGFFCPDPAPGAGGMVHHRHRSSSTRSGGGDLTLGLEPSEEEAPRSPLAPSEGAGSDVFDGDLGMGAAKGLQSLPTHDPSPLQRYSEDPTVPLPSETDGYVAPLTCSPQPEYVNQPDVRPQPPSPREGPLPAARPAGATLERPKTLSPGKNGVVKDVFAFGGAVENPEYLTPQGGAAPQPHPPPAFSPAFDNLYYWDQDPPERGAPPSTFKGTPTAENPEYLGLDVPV
Method for EGFR: 5ʹ upstream to the EGFR sequence comprised a sequence that encoded (His)6. Sf-9 cells were infected for 72h for protein expression. The pellets of Sf-9 cells were solubilized in a buffer containing sodium vanadate (100 μM), aprotinin (10 μg/mL), triton (1%), HEPES buffer(50mM), ammonium molybdate (10 μM), benzamidine HCl (16 μg/mL), NaCl (10 mM),leupeptin (10 μg/mL) and pepstatin (10 μg/mL) at 0°C for 20 min at pH 7.4, followed by centrifugation for 20 min. To eliminate the nonspecifically bound material, a Ni-NTA super flow packed column was used to pass through and wash the crude extract supernatant first with 10mM and then with 100 mM imidazole. Histidine-linked proteins were first eluted with 250 and then with 500 mM imidazole subsequent to dialysis against NaCl (50 mM), HEPES (20 mM), glycerol (10%) and 1 μg/mL each of aprotinin, leupeptin and pepstatin for 120 min. The purification was performed either at 4 °C or on ice. To record autophosphorylation level, EGFR kinase assay was carried out on the basis of DELFIA/Time-Resolved Fluorometry. […] Each compound (10 μL) was incubated with recombinant enzyme (10 μL, 5 ng for EGFR, 1:80 dilution in 100 mM HEPES) for 10 min at 25 °C, subsequent to the addition of 5X buffer (10 μL, containing 2 mM MnCl2, 100 μM Na3VO4, 20 mM HEPES and 1 mM DTT) and ATP-MgCl2 (20 μL, containing 0.1 mM ATP and 50 mM MgCl2) and incubation for 1h. The negative and positive controls were included in each plate by the incubation of enzyme either with or without ATP-MgCl2. The liquid was removed after incubation and the plates were washed thrice using a wash buffer. The Europium-tagged antiphosphotyrosine antibody (75 μL, 400 ng) was added to each well followed by incubation of 1h and then washing of the plates using buffer. […] The autophosphorylation percentage inhibition by compounds was calculated using the following equation:
The majority of signals detected by antiphosphotyrosine antibody were from EGFR because the enzyme preparation contained low impurities.
Method for HER-2: The ADP-Glo™ Kinase Assay was used for kinase activity detection, related kinases information: HER-2 (ab60866, Abcam), with a concentration of 100 ng/mL. Target compounds were dissolved in DMSO to obtain drug solutions with different concentrations, and the compound concentrations in the final reaction system (100 μL) were 1 nM, 20 nM, 40 nM, 80 nM, and 100 nM, respectively. 10μL of the solution containing compounds was transferred to a 96-well plate, then added 40 μL of 1 × kinase buffer (50 mM HEPES, pH 7.5) to each well, and mixed the mixture in the 96-well plate on a shaker for 10 min. Next, added 25 μL of ADP-Glo™ reagent to the above wells, mixed and incubated for another 40 min. Distributed 10 μL kinase detection reagent to the reaction and incubated for 30 min. Finally, the full-wavelength microplate reader was used to record the OD value.
Method for in vitro: as §4

Usually IC50 stands for the concentration needed to halve the response being measured. One may read the viability as a read-out of living cells in per cent, often relative to untreated cells. The low end stands for a greater loss of cells, the high end for better survival. By GI50 is commonly meant the concentration at which growth is held to half of that of the control. A low value points to greater sensitivity of the cells. `Cc1ccc(S(=O)(=O)N/N=C/c2c(O)c3ccccc3n(C)c2=O)cc1` [Compound 3a, (E)-N'-((4-hydroxy-1-methyl-2-oxo-1,2-dihydroquinolin-3-yl)methylene)-4-methylbenzenesulfonohydrazide]: the IC50 in [1] came to 92 ± 9 nM; in data set [4], 89 ± 8 nM; in data set [5], 94 ± 9 nM; in [6] it was 94 ± 9 nM. In data set [2], the viability at 4 days, 50 µM is 90%. The same compound showed a GI50 in [3] of 92 nM. In addition, in [3], the “Potency reduction (fold) compared to 3d (GI50)” value (“Potency reduction (fold)” below) is given as “at least 2.3”.

As for `Cc1ccc(S(=O)(=O)N/N=C/c2c(O)c3cc(Cl)ccc3[nH]c2=O)cc1` [Compound 3f, (E)-N'-((6-chloro-4-hydroxy-2-oxo-1,2-dihydroquinolin-3-yl)methylene)-4-methyl benzenesulfonohydrazide], the IC50 is 99 nM and 95 nM on EGFR; 46 ± 4 nM in data set [1]; 44 ± 3 nM against HER-2; 43 ± 4 nM in data set [4]; 48 ± 4 nM in data set [5]; 46 ± 4 nM in data set [6]. On EGFR, the “Fold less effective than erlotinib, EGFR inhibition” value is on record as 1.2. In [2], this compound came in with a viability at 4 days, 50 µM of 90%. Besides, in [3], the concentration for 50% growth inhibition (GI50) turned out to be 46 nM.

On to `COc1ccc2[nH]c(=O)c(/C=N/Nc3ccc([N+](=O)[O-])cc3[N+](=O)[O-])c(O)c2c1` [Compound 5c, (E)-3-((2-(2,4-Dinitrophenyl)hydrazono)methyl)-4-hydroxy-6-methoxy quinolin-2(1H)-one], for which the IC50 in data set [1] stood at 65 ± 6 nM; in data set [4] it was 62 ± 6 nM; in data set [5], 68 ± 6 nM; in data set [6], 69 ± 6 nM. In the data set “in vitro”, this compound registered a viability at 4 days, 50 µM of 89%. Moreover, in data set [3], the GI50 is 66 nM.

As to `Cc1ccc(S(=O)(=O)N/N=C/c2c(O)c3cc(C)ccc3[nH]c2=O)cc1` [Compound 3c, (E)-N'-((4-hydroxy-6-methyl-2-oxo-1,2-dihydroquinolin-3-yl)methylene)-4-methylbenzenesulfonohydrazide], the IC50 is 95 nM and 99 nM against EGFR; 50 ± 5 nM in [1]; 49 ± 3 nM against HER-2; 48 ± 4 nM in [4]; 52 ± 4 nM in data set [5]; 53 ± 5 nM in data set [6]. Also, at EGFR, the “Fold less effective than erlotinib, EGFR inhibition” value was 1.2. The compound also came in with a viability at 4 days, 50 µM in [2] of 86%. Also, in data set [3], it took 51 nM to inhibit growth by half (GI50). Further, the “Potency reduction (fold)” value in [3] came out at 1.3.

As to `Cc1ccc(S(=O)(=O)N/N=C/c2c(O)c3ccc(C)cc3[nH]c2=O)cc1` [Compound 3g, (E)-N'-((4-hydroxy-7-methyl-2-oxo-1,2-dihydroquinolin-3-yl)methylene)-4-methyl benzenesulfonohydrazide], the IC50 was 94 ± 9 nM in [1], 90 ± 9 nM in data set [4], 96 ± 9 nM in [5] and 94 ± 9 nM in data set [6]. The same compound showed a viability at 4 days, 50 µM in [2] of 87%. The same compound returned a GI50 in data set [3] of 94 nM. The “Potency reduction (fold)” value in data set [3] was “at least 2.3”.

For the compound `Cc1ccc2[nH]c(=O)c(/C=N/Nc3ccc([N+](=O)[O-])cc3[N+](=O)[O-])c(O)c2c1` [Compound 5b, (E)-3-((2-(2,4-Dinitrophenyl)hydrazono)methyl)-4-hydroxy-6-methyl quinolin-2(1H)-one], the IC50 against EGFR stood at 106 ± 7 nM; in data set [1], 52 ± 5 nM; at HER-2, 56 ± 4 nM; in [4] it was 50 ± 5 nM; in data set [5] it was 54 ± 5 nM; in data set [6], 54 ± 5 nM. In [2], this compound yielded a viability at 4 days, 50 µM of 90%. Moreover, the GI50 in [3] was determined as 53 nM.

Regarding `Cn1c(=O)c(/C=N/Nc2ccc([N+](=O)[O-])cc2[N+](=O)[O-])c(O)c2ccccc21` [Compound 5e, (E)-3-((2-(2,4-Dinitrophenyl)hydrazono)methyl)-4-hydroxy-1-methyl quinolin-2(1H)-one], the IC50 in data set [1] came out at 76 ± 7 nM; in data set [4], 74 ± 7 nM; in [5], 78 ± 7 nM; in data set [6], 76 ± 7 nM. In “in vitro”, this compound displayed a viability at 4 days, 50 µM of 87%. The GI50 in data set [3] stood at 76 nM.

As for `Cc1ccc2c(O)c(/C=N/Nc3ccc([N+](=O)[O-])cc3[N+](=O)[O-])c(=O)[nH]c2c1` [Compound 5f, (E)-3-((2-(2,4-Dinitrophenyl)hydrazono)methyl)-4-hydroxy-7-methyl quinolin-2(1H)-one], the IC50 in data set [1] was 85 ± 8 nM; in data set [4] it was 83 ± 8 nM; in [5], 86 ± 8 nM; in data set [6], 86 ± 8 nM. Also, in “in vitro”, the viability at 4 days, 50 µM is 90%. In [3], this compound gave a GI50 of 85 nM.

For the compound `COc1ccc2[nH]c(=O)c(/C=N/NS(=O)(=O)c3ccc(C)cc3)c(O)c2c1` [Compound 3b, (E)-N'-((4-hydroxy-6-methoxy-2-oxo-1,2-dihydroquinolin-3-yl)methylene)-4-methyl benzenesulfonohydrazide], the IC50 in data set [1] was 56 ± 5 nM; in [4], 52 ± 5 nM; in [5], 58 ± 5 nM; in data set [6], 56 ± 5 nM. Moreover, the viability at 4 days, 50 µM in data set [2] worked out at 92%. In data set [3], this compound registered a GI50 of 56 nM. Also, in data set [3], the “Potency reduction (fold)” value turned out to be 1.4.

Take `CCn1c(=O)c(/C=N/NS(=O)(=O)c2ccc(C)cc2)c(O)c2ccccc21` [Compound 3e, (E)-N'-((1-Ethyl-4-hydroxy-2-oxo-1,2-dihydroquinolin-3-yl)methylene)-4-methyl benzenesulfonohydrazide]: the IC50 worked out at 62 ± 6 nM in data set [1], 61 ± 6 nM in [4], 64 ± 6 nM in data set [5] and 64 ± 6 nM in data set [6]. Moreover, the viability at 4 days, 50 µM in data set [2] came to 89%. The compound also returned a GI50 in data set [3] of 63 nM.

For the compound `O=c1[nH]c2ccc(Cl)cc2c(O)c1/C=N/Nc1ccc([N+](=O)[O-])cc1[N+](=O)[O-]` [Compound 5g, (E)-6-Chloro-3-((2-(2,4-dinitrophenyl)hydrazono)methyl)-4-hydroxy quinolin-2(1H)-one], the IC50 stood at 81 ± 8 nM in data set [1], 78 ± 7 nM in data set [4], 82 ± 8 nM in data set [5] and 82 ± 8 nM in data set [6]. In the data set “in vitro”, this compound had a viability at 4 days, 50 µM of 91%. The compound also displayed a GI50 in data set [3] of 81 nM.

Turning to `Cc1ccc(S(=O)(=O)N/N=C/c2c(O)c3cccc(C)c3[nH]c2=O)cc1` [Compound 3h, (E)-N'-((4-hydroxy-8-methyl-2-oxo-1,2-dihydroquinolin-3-yl)methylene)-4-methyl benzenesulfonohydrazide], the IC50 in [1], in [4], in data set [5] and in [6] was over 100 nM in each case. The viability at 4 days, 50 µM in data set [2] turned out to be 90%. This compound also showed a GI50 in data set [3] of over 100 nM. Moreover, in data set [3], the “Potency reduction (fold)” value is given as “at least 2.3”.

With `Cc1cccc2c(O)c(/C=N/Nc3ccc([N+](=O)[O-])cc3[N+](=O)[O-])c(=O)[nH]c12` [Compound 5d, (E)-3-((2-(2,4-Dinitrophenyl)hydrazono)methyl)-4-hydroxy-8-methyl quinolin-2(1H)-one], the IC50 turned out to be 71 ± 7 nM in data set [1], 67 ± 6 nM in data set [4], 74 ± 7 nM in data set [5] and 74 ± 7 nM in data set [6]. Also, the viability at 4 days, 50 µM in the data set “in vitro” was 92%. Besides, the GI50 in [3] is 72 nM.
